Entries after “also recorded” stand apart in the source; their conditions may differ.
Columns and labels:
C2C12 cells = assay: In vitro DNA (luciferase reporter) delivery; format: cell-based; conditions: N:P=8:1, DOTMA/DOPE w/w=1:1 to DNA
Source text: FIG. 25. In vitro DNA delivery to HeLa and C2C12 cells. HeLa cells were transfected with either DNA alone, G1,2,3-RL (N:P=5:1) and DOTMA/DOPE (at a w/w=1:1 to DNA) with DNA and G1,2,3-RL (N:P=5:1) and DOPG/DOPE (at a w/w=1:1 to DNA) with DNA (top panel). C2C12 cells (a muscle-derived cell line) were transfected with either DNA alone, polyethylenimine with DNA, G1,2-RL, 3-LR (N:P=8:1) and DOTMA/DOPE (at a w/w=1:1 to DNA) with DNA and NTX2 (N:P=8:1) and DOTMA/DOPE (at a w/w=1:1 to DNA) with DNA (bottom panel). The DNA used in both experiments encodes a luciferase reporter gene. NTX2 is a G1,2-RL, 3-LR dendrimer conjugated to a muscle targeting peptide ASSLINA ((LR)8(KRL)4(KRL)2KGSCGAASSLNIA(Acp)-NH2).
NTX2 is a G1,2-RL, 3-LR dendrimer conjugated to a muscle targeting peptide ASSLINA ((LR)8(KRL)4(KRL)2KGSCGAASSLNIA(Acp)-NH2).

mice tissue [1] = assay: In vivo luciferase mRNA expression assays; conditions: for luciferase expression in tissues, mRNA delivery: intravenous, DOTMA/DOPE w/w=10:1 to mRNA, 6 hours
Description: Peptide dendrimers were diluted to a respective concentration and mixed with mRNA for a desired NP ratio such as NP=0.15:1 or 8:1. The solution was incubated in room temperature for 10 mins. Lipid such as DOTMA/DOPE was diluted to a respective concentration and mixed with the dendrimer-mRNA complexes for a desired NP ratio such as NP-4.7:1. The solution was incubated in room temperature for 20 mins. When required, the solution would be further diluted before injection.
All animal procedures conducted in our studies complied with UK laws and were inclusive of ethics approval. Female CD-1 mice (n=39) aged 6-8 weeks left to habituate for 1-week upon their arrival. All mice were weighed, and the formulations were delivered intravenously (100 μl) via the tail vein using 30G insulin syringes (BD biosciences).
All mice were imaged 6 hours post injection. BLI was performed using an IVIS Lumina II (Perkin Elmer) Imaging system. Mice were administered D-luciferin (30 mg/mL, XenoLight, Perkin Elmer) at a dose of 150 mg/kg. Mice were anaesthetised 6 mins after receiving D-luciferin in a chamber with 5% isoflurane and then placed on a heated imaging platform while being maintained on 2.5% isoflurane. Mice were imaged 10 min post administration of D-luciferin with an exposure time set to ensure the signal acquired was within an effective detection range (open filter, binning 8, f-stop 1). Bioluminescence signal was quantified by measuring photon flux (photons/s) in the defined region of interest (ROI) using the Living Image software (Perkin Elmer). Following in vivo whole-body imaging, the mice were euthanised, cardiac blood taken, and the tissues extracted for ex vivo imaging. Here each tissue was placed into individual wells of a 24-well imaging plate (black sided, Eppendorf) containing 0.3 mg/mL D-luciferin in PBS). The imaging plate was placed in the centre of imaging platform (Lumina II system) and signal was measured using the acquisition settings detailed above. Finally, the tissues were placed in storage vials and flash frozen in liquid nitrogen.
Mice were injected with a composition comprising DOTMA/DOPE, mRNA encoding luciferase and either G1,2,3-RL, (FIG. 10, top panel; the “G1,2,3-RL, lipid and mRNA formulation”) or G1,2-RL,3-LR (FIG. 10, bottom panel: the “G1,2,3-RL, lipid and mRNA formulation”). Each formulation was prepared and injected at an NP ratio of 8:1 and 0.15:1. Mice were prepared for detection of luciferase expression post injection.

immune cells = assay: Immune cell targeting: uptake of labelled mRNA after intravenous injection (flow cytometry); format: in vivo, mice
Description: Fifteen 5-7-week-old female CD-1 mice (Charles River UK) were dosed with 1 mg/kg of either mRNA labelled with Alexa Fluor488 only or mRNA labelled with Alexa Fluor488 with NTX1 and DOTMA/DOPE or mRNA labelled with Alexa Fluor488 with G1,2-RL, 3-LR and DOTMA/DOPE or mRNA labelled with Alexa Fluor488 with G1,2-RL, 3-LR and DOTMA/DOPE, respectively, via intravenous injection using a dose volume of 5 ml/kg. Group 1 received vehicle and Group 5 received mRNA alone as controls. Mice in al groups were culled 2 hours post IV administration. At the time of euthanasia, whole blood, spleen, inguinal lymph nodes and femurs were collected from all mice. White Blood Cells (WBC) were obtained from EDTA treated whole blood, spleen, inguinal lymph nodes and bone marrow for flow cytometry analysis. In short, bone marrow (BM) was flushed from femurs, and spleens and lymph nodes were processed to single cell suspensions by passing them through a 70 μm filter. Red blood cells in blood, BM and spleen were lysed before isolated WBCs from all tissues were stained with different antibody panels to identify specific sub-populations of immune cells. The staining was performed in a 96-well plate format before samples were analysed using an ACEA Novocyte 3005 flow cytometer.

[2] = Hydrodynamic size, polydispersity index and zeta potential of dendrimer, lipid and mRNA complexes; format: physicochemical; conditions: DOTMA/DOPE w/w 10:1 to mRNA; for Hydrodynamic size: dendrimer, lipid and mRNA complexes
Description: The hydrodynamic size, polydispersity index and Zeta potential was determined for a set of the dendrimers disclosed in Tables 1 and 2.

mice tissue [3] = assay: In vivo luciferase DNA expression assays; conditions: intramuscular; DOTMA/DOPE w/w=1:1 to DNA; NP 20:1; 48 h
Description: Mice were injected with the dendrimers, lipid and DNA formulations, and tissues were isolated and snap-frozen for luciferase expression analysis 24 h and 48 h post intravenous and intramuscular injection respectively.
The tissues were homogenised with 1× reporter lysis buffer supplemented with Protease Inhibitors. Depending on the tissues, 1.5 to 3 times of the lysis buffer was used for the tissue homogenisation. Following the homogenisation, the lysates were centrifuged and the supernatants were used for assaying luciferase expression and protein content. The luciferase expression level was measured with a luminometer using a luciferase assay kit (Promega), following the manufacturer's instructions. The protein content was measured using a Biorad protein assay kit at 595 nm absorbance, following the manufacturer's instructions.
Mice were injected with the dendrimers, lipid and DNA formulation prepared for detection of luciferase expression post injection. Tissues were isolated and snap-frozen for luciferase expression analysis 24 h and 48 h post intravenous and intramuscular injection respectively.

Polydispersity Index (PDI) ([2]; N:P 0.16:1): 0.122
Zeta Potential ([2]; N:P 0.16:1): 16 mV
Polydispersity Index (PDI) ([2]; N:P 8:1): 0.261
Zeta Potential ([2]; N:P 8:1): 56 mV
Hydrodynamic size ([2]; N:P 0.16:1): 127 nm
Hydrodynamic size ([2]; N:P 8:1): 84 nm
Substance: (LR)8(KRL)4(KRL)2KGSC-NH2 [G1,2-RL, 3-LR]
luciferase expression after DNA transfection (C2C12 cells): capable of successfully transfecting C2C12 cells
luciferase expression with PEG2000 lipid (mice tissue [1]; DOTMA/DOPE/PEG2000 compared to DOTMA/DOPE): attenuated luciferase expression
luciferase expression in tissues, mRNA delivery (mice tissue [1]; NP 0.15:1): significant expression in the Gastrocnemius and Quadricep muscle tissues, liver, heart, kidney and adipose tissue
luciferase expression in tissues, mRNA delivery (mice tissue [1]; NP 0.15:1, listed as G1,2-RL,3-LR): targets a wide range of immune cell tissues including lung, spleen, and lymph nodes; also recorded: improves efficiency of mRNA delivery to lung, spleen, and lymph nodes
luciferase expression in tissues, mRNA delivery (mice tissue [1]; NP 8:1): significant expression in the Gastrocnemius and Quadricep muscle tissues, liver, heart, kidney and adipose tissue; also recorded: significantly enhanced
delivery of mRNA to immune cells (immune cells; blood, 2 hours post-injection): Delivery of mRNA to a wide range of immune cells present in the blood is possible
uptake of mRNA in immune cells (immune cells; bone marrow, 2 hrs post-injection): mediated uptake of mRNA in immune cells present in the bone marrow
luciferase expression in skeletal muscle, DNA delivery (mice tissue [3]): capable of delivering DNA to skeletal muscle
